Source: paper PMC8038991, “R-catcher, a potent molecular tool to unveil the arginylome” (Cellular and Molecular Life Sciences: CMLS, 2021)
“Also recorded” adds a separate entry of the source.

Tests used:
R-catcher [1] = experiment: R-catcher pulldown of putative arginylated ER proteins, HeLa; type: binding, human; conditions: 5 µM MG132 plus 100 nM TG, RA competition, Fig. 6a
Procedure: For small-scale R-catcher pull-down assays, 300 µg of purified R-catcher was conjugated with 120 µl of Strep-Tactin sepharose resin by incubating overnight at 4 °C. To test R-catcher’s ability to capture known arginylated proteins, such as R-BiP, R-PDI, R-nsP4 and R-RGS4, plasmids encoding Ub-X-(BiP, PDI and nsP4) or MX-RGS4 (X = Arg or Val) were transiently transfected into HEK293 cells. After 24 h, cells were treated with 10 µM MG132 and 100 nM thapsigargin for another 24 h. Cells were harvested and lysed in hypotonic buffer and 300 µg total protein was incubate with 25 µl R-catcher-sepharose resin in binding buffer (20 mM HEPES pH 7.9, 0.05% Tween 20, 10% glycerol, 0.2 M KCl, protease inhibitor and phosphatase inhibitor) for 3 h with gentle rotation at 4 °C. After three washes with binding buffer, bound proteins were dissociated with 2 × SDS sample buffer and boiling at 100 °C and subjected to immunoblotting using anti-myc or flag antibodies.
Plasmids encoding the proteins were transiently transfected to HeLa cells for 24 h and stimulated with 5 µM MG132 plus 100 nM TG for another 24 h. Cell lysates were incubated with R-catcher immobilized on tactin beads for 3 h. After wash, bound proteins were eluted with 2 × SDS sample buffer followed by boiling at 100 °C for 10 min and visualized by western blot analysis. b R-catcher pulldown assays to validate ATE1-dependent arginylation of […]1, PRDX4, FBLN1 and CLUS. Plasmids encoding […]1, PRDX4, FBLN1 and CLUS were transiently transfected into + / + and ATE1^−/− MEFs for 24 h and stimulated with 5 µM MG132 plus 100 nM TG for another 9 h. Cell lysates were subjected to R-catcher pulldown, and bound proteins were detected by western blot analysis. c R-catcher pull-down assays to evaluate if the arginylation of FBNL1, SERPINH1, CLUS and PRDX4 is induced in response to MG132 plus thapsigargin. d X-peptide pulldown assays to confirm no interaction of R-catcher with Nt-Ala19 of SERPINH1 peptides and Nt-Trp38 of PRDX4 peptides. X-peptides where X is A19 (SignalP predicted P1’ site), E20 (next possible P1’ site predicted by PrediSi) or R19 (Arginylated form of Glu) for SERPINH1 and W38 (SignalP predicted P1’ site), E39 (next possible P1’ site predicted by PrediSi) or R38 (Arginylated form) for PRDX4. Biotinylated X-peptides immobilized on streptavidin agarose beads were incubated with affinity-purified GST-ZZ ([…]). Bound GST-ZZ (N132D) was detected by immunoblotting. e Identification of arginylated sites employing mutational analysis. Predicted P1’ sites of SERPINH1, PRDX4, CLUS and FBLN1 were substituted to Gly, and the inhibitory effect of the mutation on binding with R-catcher was examined by performing R-catcher pulldown assays

GST-ZZ122-175^N132D = GST-ZZ122-175^N132D pulldown from HeLa lysates (MG132 plus TG); type: binding, human; conditions: HeLa lysate, immunoblot
Excerpt: Using these lysates and purified GST tagged ZZ122-175^N132D (Supplementary Fig. 4A) immobilized on glutathione resin, we performed pulldown assays. […] In addition to pulling down R-BiP and R-CRT, GST-ZZ122-175^N132D was able to capture polyubiquitinated proteins, which were also disrupted by the D129A mutation and RA dipeptide competition (Supplementary Fig. 4B). This was expected because arginylated proteins are known to be ubiquitinated by E3 ligases containing a UBR box leading to their proteasomal degradation.
Fig. 4 ZZ122-175 ^N132D is capable of capturing known arginylated proteins in cells. a Western blot analysis to visualize arginylated BiP and CRT. […] N-terminally arginylated BiP and CRT were detected by immunoblotting using anti R-BiP and R-CRT antibodies. b GST pulldown assays to test the ability of wild type (WT) and N132D GST-ZZ in capturing cellular R-BiP and R-CRT. […] Pulled down R-BiP and R-CRT were detected using anti R-BiP and R-CRT antibodies. c Schematic drawing illustrating R-catcher. […] R-catcher bound arginylated proteins were detected by immunoblotting using anti-Myc or Flag antibody. e R-catcher pulldown assay to capture R-BiP and R-CRT induced in HeLa cells stimulated with MG132 plus TG in the absence or presence of 20 mM dipeptides TEXT PRINTED IN THE PICTURE: (C) R-catcher: ~ 9 kDa

R-catcher [2] = experiment: R-catcher pulldown in +/+ and ATE1-/- MEFs; type: binding; conditions: +/+ versus ATE1-/- MEFs, MG132 plus TG, 9 h, Fig. 6b
Procedure: (§1) For small-scale R-catcher pull-down assays, 300 µg of purified R-catcher was conjugated with 120 µl of Strep-Tactin sepharose resin by incubating overnight at 4 °C. To test R-catcher’s ability to capture known arginylated proteins, such as R-BiP, R-PDI, R-nsP4 and R-RGS4, plasmids encoding Ub-X-(BiP, PDI and nsP4) or MX-RGS4 (X = Arg or Val) were transiently transfected into HEK293 cells. After 24 h, cells were treated with 10 µM MG132 and 100 nM thapsigargin for another 24 h. […]
(§2) Plasmids encoding the proteins were transiently transfected to HeLa cells for 24 h and stimulated with 5 µM MG132 plus 100 nM TG for another 24 h. […] Cell lysates were subjected to R-catcher pulldown, and bound proteins were detected by western blot analysis. c R-catcher pull-down assays to evaluate if the arginylation of FBNL1, SERPINH1, CLUS and PRDX4 is induced in response to MG132 plus thapsigargin. d X-peptide pulldown assays to confirm no interaction of R-catcher with Nt-Ala19 of SERPINH1 peptides and Nt-Trp38 of PRDX4 peptides. […] Bound GST-ZZ (N132D) was detected by immunoblotting. e Identification of arginylated sites employing mutational analysis. […]

[3] = Identification of arginylation sites, GelNrich and in-gel digestion LC-MS/MS
Excerpt: Upon separation of the immunoprecipitated protein by SDS-PAGE and staining with Coomassie Blue, the corresponding protein band was excised, half of which was subjected to GelNrich and the other half to conventional in-gel digestion GelNrich is an N-terminal peptide enrichment method based on in-gel digestion. The method includes in-gel protein level labeling of primary amines using d6-acetic anhydride and post-digestion negative selection of labeled N-terminal peptide(s) using N-hydroxysuccinimide activated agarose beads. Peptides recovered from GelNrich or in-gel digestion were dried in a vacuum evaporator and reconstituted in 0.1% formic acid. An aliquot was injected from a cooled (10 °C) auto-sampler into a reversed-phase EASY-Spray column (25 cm × 75 μm, Thermo Fisher Scientific) on an Eksigent nanoLC-ultra 1D plus system (Danaher Corporation) at a flow rate of 300 nL/min. Prior to use, the column was equilibrated with 96% buffer A (0.1% formic acid in water) and 4% buffer B (0.1% formic acid in acetonitrile). The peptides were eluted with a linear gradient from 4 to 35% buffer B over 60 min and 35–80% buffer B over 2 min followed by an organic wash and aqueous re-equilibration at a flow rate of 300 nL/min with a total run time of 96 min. The HPLC system was coupled to a Q-Exactive mass spectrometer (Thermo Fisher Scientific) operated in a data-dependent acquisition (DDA) mode. […]

R-catcher [4] = experiment: R-catcher pulldown of P1' site Gly mutants; type: binding, human; conditions: E20 SERPINH1, E30 (printed) PRDX4, D23 CLUS, D30 FBLN1 to Gly, Fig. 6e
Procedure: as §1, §2

| Substance | binding with R-catcher, Nt-Arg dependence (R-catcher [1]) | pulldown by GST-ZZ122-175^N132D (GST-ZZ122-175^N132D) | capture by R-catcher, ATE1 dependence (R-catcher [2]) | arginylation detected by mass spectrometry [3] | effect of Gly substitution of P1' site on interaction with R-catcher (R-catcher [4]) |
| --- | --- | --- | --- | --- | --- |
| R-BiP: Nt-arginylated BiP | bound R-catcher in an Nt-Arg-dependent manner | efficiently pull down |  |  |  |
| CLU: clusterin | Nt-Arg-dependent binding with R-catcher |  | captured by R-catcher in an ATE1-dependent manner | arginylation at the D23 residue | significantly impaired their interaction with R-catcher; also recorded: abolished their binding with R-catcher |
